The values that follow come from patent US20040142952A1, “Triazoloquinazoline and pyrazolotriazolopyrimidine derivatives, medicinal compositions, adenosine a3 receptor affinity agents, ocular tension lowering agents, preparations for preventing and treating glaucoma and method of lowering ocular tension” (priority 2001, published 2004).

Structures are written as SMILES.

`CCCCc1nc2nn(C)cc2c2nc(-c3ccc(C)cc3)nn12` [Example 121, 5-n-butyl-8-methyl-2-(4-methylphenyl)pyrazolo[4,3-e]-1,2,4-triazolo[1,5-c]pyrimidine] showed a melting point of 180 to 181 °C. As for `CCCCc1nc2c(cnn2CCC)c2nc(-c3ccc(C)cc3)nn12` [Example 122, 5-n-butyl-2-(4-methylphenyl)-7-n-propylpyrazolo[4,3-e]-1,2,4-triazolo[1,5-c]pyrimidine], the figure is 113 to 113.5 °C; as for `CCCCc1nc2nn(CCC)cc2c2nc(-c3ccc(C)cc3)nn12` [Example 123, 5-n-butyl-2-(4-methylphenyl)-8-n-propylpyrazolo[4,3-e]-1,2,4-triazolo[1,5-c]pyrimidine], 101.5 to 103.5 °C.

Regarding `CCCCc1nc2c(cnn2CCC)c2nc(-c3ccc(F)cc3)nn12` [Example 124, 5-n-butyl-2-(4-fluorophenyl)-7-n-propylpyrazolo[4,3-e]-1,2,4-triazolo[1,5-c]pyrimidine], the melting point was 105.5 to 106 °C.

`CCCCc1nc2nn(CCC)cc2c2nc(-c3ccc(F)cc3)nn12` [Example 125, 5-n-butyl-2-(4-fluorophenyl)-8-n-propylpyrazolo[4,3-e]-1,2,4-triazolo[1,5-c]pyrimidine]: the melting point was 106.5 to 107.5 °C. The result for `CCCCc1nc2c(cnn2CCC)c2nc(-c3ccc(Cl)cc3)nn12` [Example 126, 5-n-butyl-2-(4-chlorophenyl)-7-n-propylpyrazolo[4,3-e]-1,2,4-triazolo[1,5-c]pyrimidine] reads 131.5 to 132 °C. As to `CCCCc1nc2nn(CCC)cc2c2nc(-c3ccc(Cl)cc3)nn12` [Example 127, 5-n-butyl-2-(4-chlorophenyl)-8-n-propylpyrazolo[4,3-e]-1,2,4-triazolo[1,5-c]pyrimidine], the melting point lay in the range of 137 to 138 °C.

`CCCCc1nc2c(cnn2CC(=O)OCC)c2nc(-c3ccccc3)nn12` [Example 128, ethyl 2-(5-n-butyl-2-phenylpyrazolo[4,3-e]-1,2,4-triazolo[1,5-c]pyrimidin-7-yl)acetate] registered a melting point of 131.5 to 132.5 °C. The compound `CCCCc1nc2nn(CC(=O)OCC)cc2c2nc(-c3ccccc3)nn12` [Example 129, ethyl 2-(5-n-butyl-2-phenylpyrazolo[4,3-e]-1,2,4-triazolo[1,5-c]pyrimidin-8-yl)acetate] displayed a melting point of 136 to 137 °C.

Regarding `CCCCc1nc2c(cnn2CC(=O)OCC)c2nc(-c3ccc(F)cc3)nn12` [Example 130, ethyl 2-[5-n-butyl-2-(4-fluorophenyl)pyrazolo[4,3-e]-1,2,4-triazolo[1,5-c]pyrimidin-7-yl]acetate], the melting point was 139.5 to 140.5 °C. The result for `CCCCc1nc2nn(CC(=O)OCC)cc2c2nc(-c3ccc(F)cc3)nn12` [Example 131, ethyl 2-[5-n-butyl-2-(4-fluorophenyl)pyrazolo[4,3-e]-1,2,4-triazolo[1,5-c]pyrimidin-8-yl]acetate] reads 164 to 165 °C. `CCCCc1nc2c(cnn2CCO)c2nc(-c3ccccc3)nn12` [Example 132, 5-n-butyl-7-(2-hydroxyethyl)-2-phenylpyrazolo[4,3-e]-1,2,4-triazolo[1,5-c]pyrimidine]: the melting point was 132 to 133 °C. As for `CCCCc1nc2nn(CCO)cc2c2nc(-c3ccccc3)nn12` [Example 133, 5-n-butyl-8-(2-hydroxyethyl)-2-phenylpyrazolo[4,3-e]-1,2,4-triazolo[1,5-c]pyrimidine], the figure is 160.5 to 162 °C. As for `CCCCc1nc2c(cnn2CCO)c2nc(-c3ccc(F)cc3)nn12` [Example 134, 5-n-butyl-2-(4-fluorophenyl)-7-(2-hydroxyethyl)pyrazolo[4,3-e]-1,2,4-triazolo[1,5-c]pyrimidine], the figure is 150.5 to 151.5 °C; as for `CCCCc1nc2nn(CCO)cc2c2nc(-c3ccc(F)cc3)nn12` [Example 135, 5-n-butyl-2-(4-fluorophenyl)-8-(2-hydroxyethyl)pyrazolo[4,3-e]-1,2,4-triazolo[1,5-c]pyrimidine], 202 to 203 °C.

In the case of `CCCCc1nc2c(cnn2CCO)c2nc(-c3ccc(C)cc3)nn12` [Example 136, 5-n-butyl-7-(2-hydroxyethyl)-2-(4-methylphenyl)pyrazolo[4,3-e]-1,2,4-triazolo[1,5-c]pyrimidine], the melting point is 134 to 136 °C. As for `CCCCc1nc2nn(CCO)cc2c2nc(-c3ccc(C)cc3)nn12` [Example 137, 5-n-butyl-8-(2-hydroxyethyl)-2-(4-methylphenyl)pyrazolo[4,3-e]-1,2,4-triazolo[1,5-c]pyrimidine], the figure is 171 to 173 °C; as for `CCCCc1nc2c(cnn2CCO)c2nc(-c3ccc(Cl)cc3)nn12` [Example 138, 5-n-butyl-2-(4-chlorophenyl)-7-(2-hydroxyethyl)pyrazolo[4,3-e]-1,2,4-triazolo[1,5-c]pyrimidine], 164 to 164.5 °C.

Consider `CCCCc1nc2nn(CCO)cc2c2nc(-c3ccc(Cl)cc3)nn12` [Example 139, 5-n-butyl-2-(4-chlorophenyl)-8-(2-hydroxyethyl)pyrazolo[4,3-e]-1,2,4-triazolo[1,5-c]pyrimidine], for which the melting point fell in the range of 189 to 190.5 °C. `CCCCc1nc2c(cnn2CCO)c2nc(-c3ccc(OC)cc3)nn12` [Example 140, 5-n-butyl-7-(2-hydroxyethyl)-2-(4-methoxyphenyl)pyrazolo[4,3-e]-1,2,4-triazolo[1,5-c]pyrimidine] yielded a melting point of 147.5 to 148.5 °C.

In turn, `CCCCc1nc2nn(CCO)cc2c2nc(-c3ccc(OC)cc3)nn12` [Example 141, 5-n-butyl-8-(2-hydroxyethyl)-2-(4-methoxyphenyl)pyrazolo[4,3-e]-1,2,4-triazolo[1,5-c]pyrimidine] had a melting point of 178 to 179 °C. The result for `CCCCc1nc2nn(CC)cc2c2nc(-c3ccc(OC)cc3)nn12` [Example 142, 5-n-butyl-8-ethyl-2-(4-methoxyphenyl)pyrazolo[4,3-e]-1,2,4-triazolo[1,5-c]pyrimidine] reads 127 to 128 °C; that for `CCCCc1nc2nn(CC)cc2c2nc(-c3ccc(C)cc3)nn12` [Example 143, 5-n-butyl-8-ethyl-2-(4-methylphenyl)pyrazolo[4,3-e]-1,2,4-triazolo[1,5-c]pyrimidine], 128 to 129 °C; that for `CCCCc1nc2nn(CC)cc2c2nc(-c3ccc(F)cc3)nn12` [Example 144, 5-n-butyl-8-ethyl-2-(4-fluorophenyl)pyrazolo[4,3-e]-1,2,4-triazolo[1,5-c]pyrimidine], 146 to 147 °C. As for `CCCCc1nc2nn(CC)cc2c2nc(-c3ccc(Cl)cc3)nn12` [Example 145, 5-n-butyl-2-(4-chlorophenyl)-8-ethylpyrazolo[4,3-e]-1,2,4-triazolo[1,5-c]pyrimidine], the figure is 141 to 142 °C; as for `CCCCc1nc2nn(CCC)cc2c2nc(-c3ccc(OC)cc3)nn12` [Example 146, 5-n-butyl-2-(4-methoxyphenyl)-8-n-propylpyrazolo[4,3-e]-1,2,4-triazolo[1,5-c]pyrimidine], 112 to 112.5 °C.

As for `COc1ccc(-c2nc3c4cnnc-4nc(CCCC(=O)O)n3[nH]2)cc1` [Example 148, 4-[2-(4-methoxyphenyl)pyrazolo[4,3-e]-1,2,4-triazolo[1,5-c]pyrimidin-5-yl]butyric acid], the melting point was 247.5 to 249 °C.

As usually defined, the melting point is the temperature of the solid-liquid transition.
